Laboratory results as given in EP3045469A1, “POLYMYXIN DERIVATIVE AND USES THEREOF” (priority 2015, dated 2016).
Like-named read-outs stand apart in the source and are kept apart here.

Legend:
[1] = rats; cited from earlier work
A. baumannii CMI 417 = assay: MIC assay (CLSI broth microdilution; checkerboard with rifampin); assay type: cell-based, Acinetobacter baumannii; settings: in combination with rifampin (0.25 µg/mL), duplicate checkerboard assays; polymyxin-nonsusceptible strain
Experimental: (§1) Synergy studies were performed by using polymyxin derivatives in combination with rifampin, a model compound for such antibacterial agents that the intact outer membrane of Gram-negative bacteria acts as a permeability barrier.

K. pneumoniae JMI 27072 = tested on: K. pneumoniae JMI 27072
Experimental: as §1

E. coli ATCC 25922 = tested on: E. coli ATCC 25922
Experimental: as §1

Escherichia coli C175-94 = assay: Murine urinary infection efficacy study; assay type: in vivo
Experimental: The study used 64 outbred, OF-1 female mice (Charles River, France) weighing 28 -32 grams and Escherichia coli C175-94 (serotype O8:K48:H4), a clinical isolate elaborating type 1fimbriae. The peptides were NAB815 (Lot 1054308) and polymyxin B (Sigma-Aldrich, batch BCBF8382V). The study was performed by Statens Serum Institut, Copenhagen, Denmark.
Three days before the start of the study and during the study, the mice had free access to 5% glucose as drinking water.
On day 0, the urine was removed from the bladder by gently pressing the abdomen, Thereafter, the mouse was anaesthetized with approximately 0.15 ml of Zoletil mix s.c. A syringe with polyethylene catheter (Becton Dickison) containing the bacterial suspension was inserted via the urethra into the bladder and 50 µl of the bacterial inoculum was slowly injected into the bladder. Hereafter, the mouse was left in the cage. Mice were kept in a warming cabinet and were under surveillance until fully awake.
After measuring the colony forming units (CFUs), the inoculum was determined to contain 9.38 log10 CFU/ml, corresponding to 8.08 log10 CFU/mouse.
On day 1 and on day 2 postinfection, the mice were treated subcutaneously with solutions (0.2 ml) containing NAB815, polymyxin B or vehicle (0.9% NaCl) twice a day. The treatment groups (six mice in each) were the following: vehicle control; NAB815, 0.25 mg/kg/dose; NAB815, 0.5 mg/kg/dose; NAB815, 1 mg/kg/dose; NAB815, 2 mg/kg/dose; polymyxin B, 0.25 mg/kg/dose; polymyxin B, 0.5 mg/kg/dose; polymyxin B, 1 mg/kg/dose; and polymyxin B, 2 mg/kg/dose. In addition, one group served as a pretreatment control to help to assess as how the infection has proceeded before the start of the treatment on day 1 postinfection.
On days 1, 2 and 3 postinfection urine was sampled for colony counts. On day 1 postinfection (pretreatment control group) and on day 3 postinfection (all the other groups) after the urine sample was taken, mice were sacrificed by cervical dislocation and bladder and kidneys were removed aseptically. The bladder and kidneys were stored at -80 °C and later homogenized in 0.5 and 1 ml saline, respectively.
CFUs in urine were determined immediately within 2-3 hours after sampling. Frozen organs were thawed and homogenized with steel beads on a tissue lyser. All samples, urine, kidney and bladder, were 10 fold diluted in saline and 20-µl spots were applied on blood agar plates in duplicates. In addition, undiluted samples of urine (2-100 µl depending on the amount of urine) were spread on a separate agar plate to determine the lowest possible detection level of the colony counts. All agar plates were incubated 18-22 h at 35 °C in ambient air.

[2] = dogs; cited from earlier work
[3] = alone, Müller-Hinton II broth, 35°C, 20 hours
[4] = in combination with rifampin (0.25 µg/mL), duplicate checkerboard assays
[5] = of all the 24 mice treated at 0.25-2 mg/kg/dose

## Polymyxin B
[1]
  S-Crea and BUN response: lack of response
A. baumannii CMI 417
  MIC: 1 µg/mL
K. pneumoniae JMI 27072; [3]
  MIC: 2 µg/mL
K. pneumoniae JMI 27072; [4]
  MIC: 1 µg/mL
E. coli ATCC 25922; [3]
  MIC: 2 µg/mL
E. coli ATCC 25922; [4]
  MIC: 0.5 to 1 µg/mL
Escherichia coli C175-94; mice, 0.25-2 mg/kg/dose subcutaneously twice a day
  dose-response in the CFUs in the bladder and in the kidneys: did not show any dose-response tendency
Escherichia coli C175-94; mice, any dose group (0.25, 0.5, 1, 2 mg/kg/dose) subcutaneously twice a day
  CFU levels in urine, day 3 versus pretreatment control group on day 1 postinfection: no significant differences
Escherichia coli C175-94; [5]
  number of mice with bacterial levels below the detection limit in the kidneys: 10
  number of mice with bacterial levels below the detection limit in the urine: 1
[2]
  S-Crea and BUN response: elicited a rapid onset of S-Crea and BUN response
